Results on three compounds are retold here after patent US20240084237A1, “A DEVICE HAVING A SUPPORT STRUCTURE FOR CREATING A HOLLOW, THREE-DIMENSIONAL ORGANOIDS AND CULTURES” (The Trustees of Indiana University, priority 2021, published 2024).

This experiment relates to iMG incorporated into the hollow organoid culture. The experiment in a line: neural inflammation model: iMG incorporated into hollow (tubular) brain organoid culture, drug treatment. Type of experiment: cell-based, human. The note with it: for response of iMG incorporated into the hollow organoid culture to external stimulation: recapitulating the in vivo phenotype and functions during neural inflammation, LPS 100 ng/mL 24 hours followed by ATP 2 mM 30 minutes, DAMGO 100 nM 24 hours. The method, then: To differentiate WA01 cells into microglia, WA01 cells were plated onto Matrigel (Corning) coated 6-well plate at a density of 30-40 colonies per well. The WA01 cells were then differentiated into hematopoietic progenitor cells (HPC) using STEMdiff hematopoietic kit (Stemcell Technologies). The differentiated WA01 derived HPC was then further differentiated into induced microglia (iMG) cells using STEMdiff Microglia Differentiation kit (Stemcell Technologies).
To treat microglia cultured in well plates or microglia embedded in hFO, lipopolysaccharide (LPS) (Sigma) is dosed at 100 ng/mL for 24 hours followed by Adenosine 5′-triphosphate (ATP) (Sigma) at a concentration of 2 mM for 30 minutes. Similarly, DAMGO was given at a concentration of 100 nM for 24 hours. For LY-2828360 (Cayman Chemicals) treatment, microglia treated with DAMGO for 24 hours was refreshed with a medium containing 100 nM LY-2828360 for an additional 24 hours.
To visualize inflammasome activation inside microglia cells, we analyzed NLRP3/ASC colocalization by proximity ligation assay (PLA). Samples were subject to NLRP3/ASC staining following by colocalization PLA using the Duolink in situ red kit (Sigma). After the PLA labeling, samples were then additionally labeled by Iba1/MAP2 before coverslipped with Prolong gold anti-fade DAPI mounting medium (Thermo Fisher) and visualized under an inverted fluorescence microscope (Olympus IX-83).
Conditioned medium of 24 hours (total volume 500 μL) from control conditions or drug-treated conditions were collected from microglia cultured in 24 well plates or incorporated inside tubular organoids. The medium was centrifuged at 2,000 g for 10 minutes to remove cell debris. 400 μL of supernatant was then aspirated and used for ELISA assays. Samples were assayed using ELISA plates for IL-1β (Tribioscience), IL-18 (Tribioscience), and TNF-α (Abcam). Each sample was tested in triplicates and read at 450 nm for absorbance.

With `C[C@@H](NC(=O)[C@@H](N)Cc1ccc(O)cc1)C(=O)NCC(=O)N(C)[C@@H](Cc1ccccc1)C(=O)NCCO` [DAMGO], the “response of iMG incorporated into the hollow organoid culture to external stimulation” value is “can respond”.

`Cc1nc(N2CCN(C)CC2)c2nc(-c3ccccc3Cl)n(C3CCOCC3)c2n1` [LY282860]: under “100 nM for additional 24 hours after DAMGO 24 hours”, the “response of the neural inflammation model to treatment (therapeutics screening)” value was “evident responses”.

With lipopolysaccharide [LPS], the “response of iMG incorporated into the hollow organoid culture to external stimulation” value is recorded as “can respond”.
